# Where two headings read alike, the source gives them in different places.
# Experiments:
# IGF-1R = target: T1, IGF-1R (Homo sapiens, UniProt P08069); test: IGF-1R inhibitory activity (kinase reaction, time-resolved fluoroimmunoassay); type: biochemical; conditions: test compound 10 μmol/L
# T1 construct: purchased Upstate Co. 14-465
# In short: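 Compounds were tested at a single 10 μmol/L concentration. Each was incubated with recombinant IGF-1R (200 μg/L), 10 mmol/L ATP, MgCl2/MnCl2 and Na3VO4 (pH 7.5) on immobilized poly(Glu-Tyr) peptide for 30 min at 24° C. Eu-anti-phosphotyrosine time-resolved fluorescence (340/615 nm) gave relative activity against no-compound and no-enzyme wells, reported as % inhibition.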
# KMS-11 = test: Cytostatic activity on human multiple myeloma cell line KMS-11 (WST-1); type: cell-based; conditions: for inhibition at 10 µM / inhibition at 1 µM: Homo sapiens, KMS-11, 72 h; for inhibition at 10 µM: 10 μmol/L, read-out: cytostatic rate (%) KMS-11 (10 μmol/L); for inhibition at 1 µM: read-out: cytostatic rate (%) KMS-11 (1 μmol/L)
# In short: (§1)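 Cells pre-cultured 24 h at 37 °C, 5% CO2, then exposed 72 h to compound at final 1 or 10 μmol/L (0.1% DMSO). WST-1 added for 2 h, absorbance at 450 nm (ref 690 nm). Cytostatic rate = 100 minus relative growth, with DMSO control as 100% and blank as 0%.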
# NCI-H929 = test: Cytostatic activity on human multiple myeloma cell line NCI-H929 (WST-1); type: cell-based; conditions: for inhibition at 10 µM / inhibition at 1 µM: Homo sapiens, NCI-H929, 72 h; for inhibition at 10 µM: 10 μmol/L, read-out: cytostatic rate (%) H929 (10 μmol/L); for inhibition at 1 µM: read-out: cytostatic rate (%) H929 (1 μmol/L)
# In short: as §1
# [1] = IGF-1R active recombinant enzyme
# [2] = KMS-11 cells, test compound 1 μmol/L, WST-1
# [3] = NCI-H929 cells, test compound 1 μmol/L, WST-1
# T1 sequence (P08069 959-1367 limits assumed): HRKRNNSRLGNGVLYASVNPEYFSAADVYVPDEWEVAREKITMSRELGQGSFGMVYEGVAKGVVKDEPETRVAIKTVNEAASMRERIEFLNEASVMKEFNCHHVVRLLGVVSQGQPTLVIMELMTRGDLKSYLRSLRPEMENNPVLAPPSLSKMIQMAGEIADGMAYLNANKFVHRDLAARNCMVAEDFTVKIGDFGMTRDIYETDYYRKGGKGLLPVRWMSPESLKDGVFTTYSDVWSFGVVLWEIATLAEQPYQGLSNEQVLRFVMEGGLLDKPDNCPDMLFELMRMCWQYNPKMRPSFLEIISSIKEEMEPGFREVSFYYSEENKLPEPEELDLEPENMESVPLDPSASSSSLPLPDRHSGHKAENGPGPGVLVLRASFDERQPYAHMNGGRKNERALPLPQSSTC
Structure (SMILES),inhibition at 10 µM (IGF-1R; [1]),inhibition at 10 µM (KMS-11; 72 hours),inhibition at 10 µM (NCI-H929; 72 hours),other results
"Nc1cccc(C(=O)Nc2ccccc2/C=C/c2n[nH]c3ccccc23)c1 [Compound 69, (E)-3-amino-N-{2-[2-(1H-indazol-3-yl)vinyl]phenyl}benzamide]",101%,114%,116%,–
"Cn1cc([N+](=O)[O-])cc1C(=O)Nc1ccccc1/C=C/c1n[nH]c2ccccc12 [Compound 52, (E)-N-{2-[2-(1H-indazol-3-yl)vinyl]phenyl}-1-methyl-4-nitro-1H-pyrrole-2-carboxamide]",98.5%,128%,119%,–
"O=C(Nc1ccccc1/C=C/c1n[nH]c2ccccc12)c1ccc(O)cc1 [Compound 77, (E)-4-hydroxy-N-{2-[2-(1H-indazol-3-yl)vinyl]phenyl}benzamide]",101%,126%,111%,–
"Cc1ccsc1C(=O)Nc1cc(C(=O)N2CCN(C(=O)[C@@H]3CCCN3)CC2)ccc1/C=C/c1n[nH]c2ccccc12 [Compound 231, (S)-(E)-N-{2-[2-(1H-indazol-3-yl)vinyl]-5-[4-(pyrrolidin-2-ylcarbonyl)piperazin-1-ylcarbonyl]phenyl}-3-methylthiophene-2-carboxamide]",99.7%,–,–,"inhibition at 1 µM (KMS-11; 1 μmol/L, 72 hours): 80.2%; inhibition at 1 µM (NCI-H929; 1 μmol/L, 72 hours): 122%"
"O=C(Nc1ccccc1/C=C/c1n[nH]c2ccccc12)c1cnccn1 [Compound 28, (E)-N-{2-[2-(1H-indazol-3-yl)vinyl]phenyl}pyrazine-2-carboxamide]",95.2%,109%,116%,–
"Cc1ccsc1C(=O)Nc1cc(C(=O)NC2CC2)ccc1/C=C/c1n[nH]c2ccccc12 [Compound 118, (E)-N-{5-(N-cyclopropylcarbamoyl)-2-[2-(1H-indazol-3-yl)vinyl]phenyl}-3-methylthiophene-2-carboxamide]",–,114%,116%,inhibition at 10 µM (IGF-1R): 102%
"Cc1c(C(=O)Nc2ccccc2/C=C/c2n[nH]c3ccccc23)sc2ccc(Cl)cc12 [Compound 58, (E)-5-chloro-N-{2-[2-(1H-indazol-3-yl)vinyl]phenyl}-3-methylbenzo[b]thiophene-2-carboxamide]",86%,119%,69.8%,–
"CC(=O)CCN1CCN(Cc2ccc(/C=C/c3n[nH]c4ccccc34)c(NC(=O)c3sccc3C)c2)CC1 [Compound 313, (E)-{2-[2-(1H-indazol-3-yl)vinyl]-5-[4-(3-oxobutyl)piperazin-1-ylmethyl]phenyl}-3-methylthiophene-2-carboxamide]",–,–,–,inhibitory activity (%) at 10 μmol/L (IGF-1R; [1]): 100.7%; cytostatic rate (%) KMS-11 (1 μmol/L) (KMS-11; [2]): 107.9%; cytostatic rate (%) H929 (1 μmol/L) (NCI-H929; [3]): 115.2%
"Cn1cccc1C(=O)Nc1cc(N(CCO)CCN2CCOCC2)ccc1/C=C/c1n[nH]c2ccccc12 [Compound 308, (E)-{5-[N-(2-hydroxyethyl)-2-(morpholin-4-yl)ethylamino]-2-[2-(1H-indazol-3-yl)vinyl]phenyl}-1-methyl-1H-pyrrole-2-carboxamide]",–,–,–,inhibitory activity (%) at 10 μmol/L (IGF-1R; [1]): 99.1%; cytostatic rate (%) KMS-11 (1 μmol/L) (KMS-11; [2]): 128.1%; cytostatic rate (%) H929 (1 μmol/L) (NCI-H929; [3]): 118.3%
"CCN(CC)CCNCc1ccc(/C=C/c2n[nH]c3ccccc23)c(NC(=O)c2sccc2C)c1 [Compound 236, (E)-N-{5-[(2-diethylaminoethylamino)methyl]-2-[2-(1H-indazol-3-yl)vinyl]phenyl}-3-methylthiophene-2-carboxamide]",99.5%,–,–,"inhibition at 1 µM (KMS-11; 1 μmol/L, 72 hours): 139%; inhibition at 1 µM (NCI-H929; 1 μmol/L, 72 hours): 123%"
"O=C(Nc1ccccc1/C=C/c1n[nH]c2ccccc12)c1ccc([N+](=O)[O-])cc1 [Compound 65, (E)-N-{2-[2-(1H-indazol-3-yl)vinyl]phenyl}-4-nitrobenzamide]",97.9%,120%,109%,–
"CC(=O)Nc1ccccc1/C=C/c1n[nH]c2ccccc12 [Compound 9, (E)-N-{2-[2-(1H-indazol-3-yl)vinyl]phenyl}acetamide]",74.3%,99.8%,59%,–
"COc1c(OCC(=O)N2CCN(C)CC2)ccc(/C=C/c2n[nH]c3ccccc23)c1NC(=O)c1sccc1C [Compound 333, (E)-N-{6-[2-(1H-indazol-3-yl)vinyl]-2-methoxy-3-[2-(4-methylpiperazin-1-yl)-2-oxoethoxy]phenyl}-3-methylthiophene-2-carboxamide]",109%,–,–,inhibition at 1 µM (KMS-11; [2]): 119%; inhibition at 1 µM (NCI-H929; [3]): 118%
"O=C(Cc1ccccc1)Nc1ccccc1/C=C/c1n[nH]c2ccccc12 [Compound 15, (E)-N-{2-[2-(1H-indazol-3-yl)vinyl]phenyl}-2-phenylacetamide]",55.4%,95.1%,93.6%,–
"COc1c(OC(=O)CC(=O)N2CC[C@@H](O)C2)ccc(/C=C/c2n[nH]c3ccccc23)c1NC(=O)c1sccc1C [Compound 343, (E)-N—(R)-{6-[2-(1H-indazol-3-yl)vinyl]-2-methoxy-3-[(3-hydroxypyrrolidine-1-ylcarbonyl)acetyloxy]phenyl}-3-methylthiophene-2-carboxamide]",–,–,–,inhibitory activity (%) at 10 μmol/L (IGF-1R; [1]): 98.4%; cytostatic rate (%) KMS-11 (1 μmol/L) (KMS-11; [2]): 79%; cytostatic rate (%) H929 (1 μmol/L) (NCI-H929; [3]): 127.5%
"C(=C\c1n[nH]c2ccccc12)/c1ccccc1N1CCOCC1 [Compound 137, (E)-3-[2-{2-(morpholin-4-yl)phenyl]vinyl}-1H-indazole]",94.3%,51.2%,114%,–
"Cc1ccc(C(=O)Nc2ccccc2/C=C/c2n[nH]c3ccccc23)s1 [Compound 40, (E)-N-{2-[2-(1H-indazol-3-yl)vinyl]phenyl}-5-methylthiophene-2-carboxamide]",98.8%,108%,125%,–
"Cc1ccsc1C(=O)Nc1cc(C(=O)N(C)C)ccc1/C=C/c1n[nH]c2ccccc12 [Compound 117, (E)-N-{5-(N,N-dimethylcarbamoyl)-2-[2-(1H-indazol-3-yl)vinyl]phenyl}-3-methylthiophene-2-carboxamide]",–,115%,119%,inhibition at 10 µM (IGF-1R): 101%

# The next lines start with results.
inhibition at 10 µM (IGF-1R; [1]),Structure (SMILES),inhibition at 10 µM (KMS-11; 72 hours),inhibition at 10 µM (NCI-H929; 72 hours),other results
97.9%,"Cc1ccsc1C(=O)Nc1cc(C(=O)N(C)C2CCN(C)CC2)ccc1/C=C/c1n[nH]c2ccccc12 [Compound 328, (E)-N-{2-[2-(1H-indazol-3-yl)vinyl]-5-[N-methyl-N-(1-methylpiperidin-4-yl)carbamoyl]phenyl}-3-methylthiophene-2-carboxamide]",–,–,inhibition at 1 µM (KMS-11; [2]): 105%; inhibition at 1 µM (NCI-H929; [3]): 116%
100%,"Cc1ccsc1C(=O)Nc1cc(CN2CCN(C=O)CC2)ccc1/C=C/c1n[nH]c2ccccc12 [Compound 270, (E)-N-{5-(4-formylpiperazin-1-ylmethyl)-2-[2-(1H-indazol-3-yl)vinyl]phenyl}-3-methylthiophene-2-carboxamide]",–,–,"inhibition at 1 µM (KMS-11; 1 μmol/L, 72 hours): 129%; inhibition at 1 µM (NCI-H929; 1 μmol/L, 72 hours): 121%"
100%,"CC(=O)N1CCC(NC(=O)c2ccc(/C=C/c3n[nH]c4ccccc34)c(NC(=O)c3sccc3C)c2)CC1 [Compound 303, (E)-N-{5-[N-(1-acetylpiperidin-4-yl)carbamoyl]-2-[2-(1H-indazol-3-yl)vinyl]phenyl}-3-methylthiophene-2-carboxamide]",–,–,"inhibition at 1 µM (KMS-11; 1 μmol/L, 72 hours): 106%; inhibition at 1 µM (NCI-H929; 1 μmol/L, 72 hours): 115%"
97.1%,"COCCN(CCN1CCOCC1)c1ccc(NC(=O)c2sccc2C)c(/C=C/c2n[nH]c3ccccc23)c1 [Compound 238, (E)-N-{2-[2-(1H-indazol-3-yl)vinyl]-4-[N-(2-methoxyethyl)-2-(morpholin-4-yl)ethylamino]phenyl}-3-methylthiophene-2-carboxamide]",–,–,"inhibition at 1 µM (KMS-11; 1 μmol/L, 72 hours): 132%; inhibition at 1 µM (NCI-H929; 1 μmol/L, 72 hours): 126%"
105%,"COc1c(OCCCN2CCNC(=O)C2)ccc(/C=C/c2n[nH]c3ccccc23)c1NC(=O)c1sccc1C [Compound 341, (E)-N-{6-[2-(1H-indazol-3-yl)vinyl]-2-methoxy-3-[3-(3-oxopiperazin-1-yl)propoxy]phenyl}-3-methylthiophene-2-carboxamide]",–,–,inhibition at 1 µM (KMS-11; [2]): 124%; inhibition at 1 µM (NCI-H929; [3]): 120%
99.1%,"Cc1ccsc1C(=O)Nc1cc(CN2CCC(CCC(C)(C)O)CC2)ccc1/C=C/c1n[nH]c2ccccc12 [Compound 322, (E)-N-{5-[4-(3-hydroxy-3-methylbutyl)piperidin-1-ylmethyl]-2-[2-(1H-indazol-3-yl)vinyl]phenyl}-3-methylthiophene-2-carboxamide]",–,–,inhibition at 1 µM (KMS-11; [2]): 106%; inhibition at 1 µM (NCI-H929; [3]): 122%
102%,"Cc1ccsc1C(=O)Nc1cc(CNC2CCNCC2)ccc1/C=C/c1n[nH]c2ccccc12 [Compound 264, (E)-N-{2-[2-(1H-indazol-3-yl)vinyl]-5-(piperidin-4-ylaminomethyl)phenyl}-3-methylthiophene-2-carboxamide]",–,–,"inhibition at 1 µM (KMS-11; 1 μmol/L, 72 hours): 58.5%; inhibition at 1 µM (NCI-H929; 1 μmol/L, 72 hours): 111%"

# From patent publication US7605272B2, “IGF-1R inhibitor” (Kyowa Hakko Kirin Co., Ltd., priority 2005, dated 2009)
